Laboratory results reported in the supplement of paper PMC7840683.
Where a name gives a salt, the structure may show the parent alone.

System: HepaRG
Experiment: LDH release cytotoxicity, % of total lysis control; higher = more cytotoxic
Settings: 48 h
Outline: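 Single-lot HepaRG cells in collagen I-coated 96-well plates were treated for 48 h in serum-free induction medium containing 0.5% DMSO with test chemicals in eight-point half-log series up to 100 µM. For total lysis, wells received 0.1% Triton X. LDH in 50 µL spent medium was assayed by resorufin fluorescence with CytoTox-ONE. Percent cytotoxicity was normalized to the on-plate vehicle and total lysis controls, with duplicates averaged.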

CCCCCCC(=O)O [Heptanoic acid]
Settings	LDH release cytotoxicity [%]
0.03162 µM	-1.47
0.1 µM	-1.55
0.3162278 µM	-1.65
1 µM	-1.97
3.16228 µM	-1.6
10 µM	-1.54
31.6228 µM	-1.75
100 µM	0.197

CCCCC(CC)COC(=O)c1ccc(C(=O)OCC(CC)CCCC)cc1 (stereo unspecified) [Bis(2-ethylhexyl) terephthalate]
Settings	LDH release cytotoxicity [%]
0.03162 µM	-2
0.1 µM	-1.13
0.3162278 µM	-1.76
1 µM	-2.5
3.16228 µM	-2.35
10 µM	-2.12
31.6228 µM	-2.26
100 µM	-1.14

CNC(=O)CSP(=S)(OC)OC [Dimethoate]
Settings	LDH release cytotoxicity [%]
0.03162 µM	0.0142
0.1 µM	0.0233
0.3162278 µM	-0.779
1 µM	-1.24
3.16228 µM	-0.679
10 µM	-0.364
31.6228 µM	0.327
100 µM	0.574

CC(C)N(C(=O)SCC(Cl)=C(Cl)Cl)C(C)C [Tri-allate]
Settings	LDH release cytotoxicity [%]
0.03162 µM	-0.887
0.1 µM	-0.771
0.3162278 µM	-0.223
1 µM	-0.601
3.16228 µM	-0.0707
10 µM	-0.765
31.6228 µM	1.13
100 µM	1.48

CC1(C)C(C=C(Cl)Cl)C1C(=O)OCc1cccc(Oc2ccccc2)c1 (stereo unspecified) [Permethrin]
Settings	LDH release cytotoxicity [%]
0.03162 µM	-0.121
0.1 µM	-0.859
0.3162278 µM	-0.0615
1 µM	-1.15
3.16228 µM	-1.16
10 µM	-1.02
31.6228 µM	-1.28
100 µM	-0.44

Cc1cccc([N+](=O)[O-])c1C [1,2-Dimethyl-3-nitrobenzene]
Settings	LDH release cytotoxicity [%]
0.03162 µM	0.0499
0.1 µM	-0.56
0.3162278 µM	-0.0544
1 µM	0.0899
3.16228 µM	-0.155
10 µM	2.03
31.6228 µM	1.1
100 µM	1.87

CCN(CC)C(=O)SCc1ccc(Cl)cc1 [Thiobencarb]
Settings	LDH release cytotoxicity [%]
0.03162 µM	-1.69
0.1 µM	-1.48
0.3162278 µM	-1.6
1 µM	-2.11
3.16228 µM	-1.17
10 µM	-1.78
31.6228 µM	-1.01
100 µM	2.18

O=P1(N(CCCl)CCCl)NCCCO1 (stereo unspecified) [Cyclophosphamide monohydrate]
Settings	LDH release cytotoxicity [%]
0.03162 µM	-1.01
0.1 µM	-1.29
0.3162278 µM	-1.53
1 µM	-1.41
3.16228 µM	-1.5
10 µM	-0.484
31.6228 µM	-0.76
100 µM	1.23

CCCCCCCC=O [Octanal]
Settings	LDH release cytotoxicity [%]
0.03162 µM	-2.27
0.1 µM	-2.49
0.3162278 µM	-2.18
1 µM	-1.59
3.16228 µM	-1.99
10 µM	-1.65
31.6228 µM	-0.367
100 µM	-0.293

OC(CCl)CCl [1,3-Dichloro-2-propanol]
Settings	LDH release cytotoxicity [%]
0.03162 µM	-0.194
0.1 µM	-0.771
0.3162278 µM	-1.03
1 µM	-0.871
3.16228 µM	-0.223
10 µM	-0.32
31.6228 µM	0.161
100 µM	-0.702

O=C(O)c1cc(N=Nc2ccc(S(=O)(=O)Nc3ccccn3)cc2)ccc1O [Sulfasalazine]
Settings	LDH release cytotoxicity [%]
0.03162 µM	-0.789
0.1 µM	-1.61
0.3162278 µM	-0.498
1 µM	-0.487
3.16228 µM	-0.767
10 µM	0.367
31.6228 µM	0.113
100 µM	1.04

CC[C@H](C)C1O[C@]2(C=C[C@@H]1C)C[C@@H]1C[C@@H](C/C=C(\C)[C@@H](O[C@H]3C[C@H](OC)[C@@H](O[C@H]4C[C@H](OC)[C@H](NC)[C@H](C)O4)[C@H](C)O3)[C@@H](C)/C=C/C=C3\CO[C@@H]4[C@H](O)C(C)=C[C@@H](C(=O)O1)[C@]34O)O2 (stereo partly specified) [Emamectin benzoate]
Settings	LDH release cytotoxicity [%]
0.031623 µM	-1.83
0.1 µM	-1.09
0.316228 µM	-2.57
1 µM	-3.84
3.16228 µM	-2.51
10 µM	5.16
31.6228 µM	83.4
100 µM	87

CCCCC(CC)COC(=O)CCCCC(=O)OCc1ccccc1 (stereo unspecified) [Benzyloctyl adipate]
Settings	LDH release cytotoxicity [%]
0.03162 µM	-0.155
0.1 µM	-0.43
0.3162278 µM	0.101
1 µM	-0.128
3.16228 µM	1.13
10 µM	0.566
31.6228 µM	0.4
100 µM	1.95

Cc1ccc(C)c(O)c1 [2,5-Dimethylphenol]
Settings	LDH release cytotoxicity [%]
0.03162 µM	-1.02
0.1 µM	-1.37
0.3162278 µM	-1.74
1 µM	-1.34
3.16228 µM	-1.4
10 µM	-0.854
31.6228 µM	-0.822
100 µM	0.0909

CCc1nn(C2CCCCC2)c2cc(C3(C#N)CCC(C(=O)O)CC3)ccc12 (stereo unspecified)
Settings	LDH release cytotoxicity [%]
0.03162 µM	-0.818
0.1 µM	-1.01
0.3162278 µM	-0.56
1 µM	-1.9
3.16228 µM	-1.26
10 µM	-1.43
31.6228 µM	1.5
100 µM	7.65

CCN(CC)CCOc1ccc(C(=C(Cl)c2ccccc2)c2ccccc2)cc1 [Clomiphene citrate (1:1)]
Settings	LDH release cytotoxicity [%]
0.0265631 µM	-2.02
0.084 µM	-1.22
0.265631 µM	-0.767
0.84 µM	-1.18
2.6563132 µM	-0.65
8.4 µM	-1.17
26.563132 µM	9.07
84 µM	95.2

CN1CC=NC1=S [Methimazole]
Settings	LDH release cytotoxicity [%]
0.03162 µM	-0.734
0.1 µM	-1.69
0.3162278 µM	-2.04
1 µM	-2.56
3.16228 µM	-1.77
10 µM	-1.81
31.6228 µM	-1.83
100 µM	-0.15

CNC(=S)S [Metam-sodium hydrate]
Settings	LDH release cytotoxicity [%]
0.03162 µM	-0.462
0.1 µM	-0.61
0.3162278 µM	-0.991
1 µM	-1.25
3.16228 µM	-0.486
10 µM	-0.405
31.6228 µM	-0.218
100 µM	1.15

Cc1ccc2oc(CN(Cc3ccccc3)C(=O)Nc3c(F)cc(F)cc3F)c(-c3ccc(Cl)cc3)c2c1
Settings	LDH release cytotoxicity [%]
0.0279862 µM	-1.59
0.0885 µM	-1.08
0.279862 µM	-1.56
0.885 µM	-1.22
2.7986157 µM	-1.44
8.85 µM	-1.09
27.9862 µM	-0.962
88.5 µM	2.85

CCOP(=S)(Oc1ccc([N+](=O)[O-])cc1)c1ccccc1 (stereo unspecified) [EPN]
Settings	LDH release cytotoxicity [%]
0.03162 µM	-0.935
0.1 µM	-1.31
0.3162278 µM	-1.61
1 µM	-1.96
3.16228 µM	-1.14
10 µM	-0.361
31.6228 µM	0.629
100 µM	5.51

CCCCCCC(C)OC(=O)COc1nc(F)c(Cl)c(N)c1Cl (stereo unspecified) [Fluroxypyr-meptyl]
Settings	LDH release cytotoxicity [%]
0.031623 µM	1.23
0.1 µM	-0.123
0.316228 µM	0.191
1 µM	-0.348
3.16228 µM	-7.7
10 µM	8.36
31.6228 µM	-0.641
100 µM	-0.963

CC(C)(C)C(=O)C(Oc1ccc(Cl)cc1)n1cncn1 (stereo unspecified) [Triadimefon]
Settings	LDH release cytotoxicity [%]
0.031939 µM	-0.92
0.101 µM	-0.0413
0.31939 µM	-0.707
1.01 µM	-0.437
3.1939004 µM	0.192
10.1 µM	-0.0819
31.939 µM	0.1
101 µM	0.544

O=C(N[C@H](c1ccccc1)[C@@H]1CN2CCC1CC2)c1c(Cl)ccc(C(F)(F)F)c1Cl
Settings	LDH release cytotoxicity [%]
0.0292511 µM	-0.907
0.0925 µM	-0.886
0.292511 µM	-1.02
0.925 µM	-1.22
2.9251068 µM	-0.0305
9.25 µM	1.38
29.251068 µM	16.1
92.5 µM	82.5

NC(=O)c1nc(-c2cccc(-c3cc(F)ccc3OCC(F)(F)C(F)(F)F)c2)n[nH]1 [MK-274]
Settings	LDH release cytotoxicity [%]
0.03162 µM	-1.29
0.1 µM	-0.429
0.3162278 µM	-0.661
1 µM	-1.07
3.16228 µM	-0.753
10 µM	-0.915
31.6228 µM	0.166
100 µM	86.6

O=c1c(-c2ccc(O)cc2)coc2cc(O)cc(O)c12 [Genistein]
Settings	LDH release cytotoxicity [%]
0.03162 µM	-1.15
0.1 µM	0.689
0.3162278 µM	-2.06
1 µM	-1.48
3.16228 µM	-1.52
10 µM	-1.28
31.6228 µM	-1.5
100 µM	1.33

CC(C)(C)c1cc(O)c(C(C)(C)C)cc1O [2,5-Di-tert-butylbenzene-1,4-diol]
Settings	LDH release cytotoxicity [%]
0.03162 µM	-1.42
0.1 µM	-1.56
0.3162278 µM	-1.72
1 µM	-1.69
3.16228 µM	-1.49
10 µM	-1.94
31.6228 µM	-1.04
100 µM	-1.46

OCC(CO)(CO)CO [Pentaerythritol]
Settings	LDH release cytotoxicity [%]
0.03162 µM	-0.674
0.1 µM	-1.13
0.3162278 µM	-1.3
1 µM	-1.89
3.16228 µM	-0.206
10 µM	-1.15
31.6228 µM	-0.431
100 µM	0.764

CCOC(=O)CC(O)(CC(=O)OCC)C(=O)OCC [Triethyl citrate]
Settings	LDH release cytotoxicity [%]
0.03162 µM	-0.555
0.1 µM	-0.568
0.3162278 µM	0.176
1 µM	-0.693
3.16228 µM	-0.115
10 µM	0.0535
31.6228 µM	-0.467
100 µM	1.14

CCN(CC)N=O [N-Nitrosodiethylamine]
Settings	LDH release cytotoxicity [%]
0.03162 µM	-0.893
0.1 µM	-0.536
0.3162278 µM	-0.901
1 µM	-0.963
3.16228 µM	-0.649
10 µM	-1.08
31.6228 µM	0.447
100 µM	0.842

Cc1ccc(C(C)C)cc1 [p-Cymene]
Settings	LDH release cytotoxicity [%]
0.01581 µM	-0.487
0.05 µM	-1.9
0.1581139 µM	-3.02
0.5 µM	-2.63
1.5811388 µM	-1.96
5 µM	-2.1
15.8114 µM	-1.51
50 µM	0.041

O=C(O)CC(O)(CC(=O)O)C(=O)O [Citric acid]
Settings	LDH release cytotoxicity [%]
0.03162 µM	0.134
0.1 µM	-0.835
0.3162278 µM	-0.0952
1 µM	-1.29
3.16228 µM	-0.803
10 µM	0.951
31.6228 µM	0.893
100 µM	0.958

CCCCCCCCn1sccc1=O [Octhilinone]
Settings	LDH release cytotoxicity [%]
0.0328877 µM	-1.41
0.104 µM	-1.11
0.328877 µM	-1.8
1.04 µM	-2.06
3.28877 µM	-1.28
10.4 µM	-1.43
32.8877 µM	-0.0918
104 µM	41.4

OC1CCCCC1 [Cyclohexanol]
Settings	LDH release cytotoxicity [%]
0.03162 µM	-1.14
0.1 µM	-1.56
0.3162278 µM	-2.24
1 µM	-1.92
3.16228 µM	-1.56
10 µM	-0.208
31.6228 µM	-0.773
100 µM	-0.073

Clc1ccc(C(c2ccc(Cl)cc2)C(Cl)Cl)cc1 [p,p'-DDD]
Settings	LDH release cytotoxicity [%]
0.03162 µM	-1.25
0.1 µM	-1.27
0.3162278 µM	-2.03
1 µM	-1.62
3.16228 µM	-0.977
10 µM	-1.35
31.6228 µM	-1.4
100 µM	0.26

N=C(Nc1ccccc1)Nc1ccccc1 [1,3-Diphenylguanidine]
Settings	LDH release cytotoxicity [%]
0.03162 µM	-0.803
0.1 µM	-2.15
0.3162278 µM	-1.51
1 µM	-1.87
3.16228 µM	-1.59
10 µM	-1.1
31.6228 µM	-1.1
100 µM	0.505

CN(C)CCCN1c2ccccc2Sc2ccc(Cl)cc21 [Chlorpromazine hydrochloride]
Settings	LDH release cytotoxicity [%]
0.031623 µM	-1.42
0.1 µM	-1.97
0.316228 µM	-1.98
1 µM	-2.9
3.16228 µM	-1.62
10 µM	-1.31
31.6228 µM	10.7
100 µM	77.6

Cc1c(C)c2c(c(C)c1O)CCC(C)(COc1ccc(CC3SC(=O)NC3=O)cc1)O2 (stereo unspecified) [Troglitazone]
Settings	LDH release cytotoxicity [%]
0.03162 µM	-0.878
0.1 µM	-0.342
0.3162278 µM	-1.04
1 µM	-0.379
3.16228 µM	-0.376
10 µM	-1.1
31.6228 µM	8.12
100 µM	62.4
